# Experimental data reported in publication PMC5218480 (PLoS ONE, 2017).
# Test system: MV-4-11 cells
# Experiment: Gene expression microarray analysis (Affymetrix PrimeView) and GSEA
# Type: cell-based, human
# Set-up: RFU PODN (11730768_x_at) / Fold change /veh PODN (11730768_x_at) / RFU LINC00158 (11744669_a_at) / Fold change /veh LINC00158 (11744669_a_at) / RFU DUSP10 (11751237_a_at) / Fold change /veh DUSP10 (11751237_a_at) / RFU ID3 (11757404_x_at) / Fold change /veh ID3 (11757404_x_at) / RFU PLEKHG5 (11737974_s_at) / Fold change /veh PLEKHG5 (11737974_s_at) / RFU LRRC4B (11730491_at) / Fold change /veh LRRC4B (11730491_at) / RFU GIMAP4 (11747438_a_at) / Fold change /veh GIMAP4 (11747438_a_at) / RFU KRT8 (11758183_x_at) / Fold change /veh KRT8 (11758183_x_at) / RFU CNN1 (11734310_a_at) / Fold change /veh CNN1 (11734310_a_at) / RFU VPS37D (11726825_at) / Fold change /veh VPS37D (11726825_at) / RFU C10orf10 (11716522_x_at) / Fold change /veh C10orf10 (11716522_x_at) / RFU KIR2DL2 /// KIR2DL4 /// KIR2DL5A /// KIR2DL5B /// KIR2DS1 /// KIR2DS2 /// KIR2DS3 /// KIR2DS4 /// KIR3DL3 /// KIR3DL3 /// KIR3DS1 (11738374_at) / Fold change /veh KIR2DL2 /// KIR2DL4 /// KIR2DL5A /// KIR2DL5B /// KIR2DS1 /// KIR2DS2 /// KIR2DS3 /// KIR2DS4 /// KIR3DL3 /// KIR3DL3 /// KIR3DS1 (11738374_at) / RFU C1QL1 (11718748_at) / Fold change /veh C1QL1 (11718748_at) / RFU TMPRSS4 (11747572_a_at) / Fold change /veh TMPRSS4 (11747572_a_at) / RFU HAMP (11756126_x_at) / Fold change /veh HAMP (11756126_x_at) / RFU RNFT2 (11725882_a_at) / Fold change /veh RNFT2 (11725882_a_at) / RFU NR4A2 (11747474_a_at) / Fold change /veh NR4A2 (11747474_a_at) / RFU ABCC12 (11746883_a_at) / Fold change /veh ABCC12 (11746883_a_at) / RFU TMEM136 (11760407_x_at) / Fold change /veh TMEM136 (11760407_x_at) / RFU CLDN22 /// WWC2 (11732394_at) / Fold change /veh CLDN22 /// WWC2 (11732394_at) / RFU HLA-DPB1 (11760878_x_at) / Fold change /veh HLA-DPB1 (11760878_x_at) / RFU SPINT1 (11716480_a_at) / Fold change /veh SPINT1 (11716480_a_at) / RFU GAP43 (11754022_s_at) / Fold change /veh GAP43 (11754022_s_at) / RFU A4GNT (11735810_at) / Fold change /veh A4GNT (11735810_at) / RFU PRB3 (11715151_x_at) / Fold change /veh PRB3 (11715151_x_at) / RFU TUBB4B (11761932_at) / Fold change /veh TUBB4B (11761932_at) / RFU CAPN14 (11732068_a_at) / Fold change /veh CAPN14 (11732068_a_at) / RFU TMCC2 (11721928_a_at) / Fold change /veh TMCC2 (11721928_a_at) / RFU IRGQ (11745062_a_at) / Fold change /veh IRGQ (11745062_a_at) / RFU FAM174B (11720279_a_at) / Fold change /veh FAM174B (11720279_a_at) / RFU TMPRSS4 (11748680_a_at) / Fold change /veh TMPRSS4 (11748680_a_at) / RFU FAM212B (11763350_a_at) / Fold change /veh FAM212B (11763350_a_at) / RFU PLEKHG5 (11743358_a_at) / Fold change /veh PLEKHG5 (11743358_a_at) / RFU ZSCAN30 (11745921_a_at) / Fold change /veh ZSCAN30 (11745921_a_at) / RFU CMKLR1 (11741424_a_at) / Fold change /veh CMKLR1 (11741424_a_at) / RFU LOC101060620 /// MAPK8IP1 (11723275_at) / Fold change /veh LOC101060620 /// MAPK8IP1 (11723275_at) / RFU SPTSSB (11747773_x_at) / Fold change /veh SPTSSB (11747773_x_at) / RFU PRSS12 (11739890_at) / Fold change /veh PRSS12 (11739890_at) / RFU BIN1 (11741810_x_at) / Fold change /veh BIN1 (11741810_x_at) / RFU WNT11 (11732464_a_at) / Fold change /veh WNT11 (11732464_a_at) / RFU C10orf10 (11716521_a_at) / Fold change /veh C10orf10 (11716521_a_at) / RFU C5orf56 (11738089_at) / Fold change /veh C5orf56 (11738089_at) / RFU CYB561 (11721691_x_at) / Fold change /veh CYB561 (11721691_x_at) / RFU ANKRD19P (11752326_a_at) / Fold change /veh ANKRD19P (11752326_a_at) / RFU OR2T12 /// OR2T33 /// OR2T8 (11738714_s_at) / Fold change /veh OR2T12 /// OR2T33 /// OR2T8 (11738714_s_at) / RFU VCAN (11748164_a_at) / Fold change /veh VCAN (11748164_a_at) / RFU JSRP1 (11732532_at) / Fold change /veh JSRP1 (11732532_at) / RFU KRTAP10-11 (11738290_x_at) / Fold change /veh KRTAP10-11 (11738290_x_at) / RFU MYO3A (11730013_a_at) / Fold change /veh MYO3A (11730013_a_at) / RFU EBF3 (11725865_a_at) / Fold change /veh EBF3 (11725865_a_at) / RFU CAMK2N1 (11719241_x_at) / Fold change /veh CAMK2N1 (11719241_x_at) / RFU C5orf56 (11738088_a_at) / Fold change /veh C5orf56 (11738088_a_at) / RFU OLFML3 (11715873_a_at) / Fold change /veh OLFML3 (11715873_a_at) / RFU LOC100653217 /// NTM (11731650_a_at) / Fold change /veh LOC100653217 /// NTM (11731650_a_at) / RFU MAPK11 (11762145_a_at) / Fold change /veh MAPK11 (11762145_a_at) / RFU FIZ1 (11724087_x_at) / Fold change /veh FIZ1 (11724087_x_at) / RFU OASL (11726364_x_at) / Fold change /veh OASL (11726364_x_at) / RFU SOX15 (11748057_x_at) / Fold change /veh SOX15 (11748057_x_at) / RFU CD79A (11719716_a_at) / Fold change /veh CD79A (11719716_a_at) / RFU HIST1H1D (11736915_at) / Fold change /veh HIST1H1D (11736915_at) / RFU CASKIN2 (11723855_a_at) / Fold change /veh CASKIN2 (11723855_a_at) / RFU LOC730098 (11760151_x_at) / Fold change /veh LOC730098 (11760151_x_at) / RFU OR4N2 (11742367_at) / Fold change /veh OR4N2 (11742367_at) / RFU PRRT2 (11749266_a_at) / Fold change /veh PRRT2 (11749266_a_at) / RFU SNX32 (11753110_a_at) / Fold change /veh SNX32 (11753110_a_at) / RFU CDHR5 (11726645_a_at) / Fold change /veh CDHR5 (11726645_a_at) / RFU RCAN1 (11760418_a_at) / Fold change /veh RCAN1 (11760418_a_at) / RFU FAM167A (11723789_a_at) / Fold change /veh FAM167A (11723789_a_at) / RFU FAM26E (11764081_at) / Fold change /veh FAM26E (11764081_at) / RFU ISYNA1 (11749810_s_at) / Fold change /veh ISYNA1 (11749810_s_at) / RFU ACY1 (11761880_at) / Fold change /veh ACY1 (11761880_at) / RFU 11764098_at / Fold change /veh 11764098_at / RFU SAMD14 (11745864_x_at) / Fold change /veh SAMD14 (11745864_x_at) / RFU NPB (11741838_a_at) / Fold change /veh NPB (11741838_a_at) / RFU TMPRSS6 (11731388_a_at) / Fold change /veh TMPRSS6 (11731388_a_at) / RFU KRTAP10-2 (11738614_at) / Fold change /veh KRTAP10-2 (11738614_at) / RFU ARHGAP8 /// PRR5-ARHGAP8 (11727945_x_at) / Fold change /veh ARHGAP8 /// PRR5-ARHGAP8 (11727945_x_at) / RFU KRTAP5-7 /// NADSYN1 (11734609_at) / Fold change /veh KRTAP5-7 /// NADSYN1 (11734609_at) / RFU RASL12 (11751679_a_at) / Fold change /veh RASL12 (11751679_a_at) / RFU CDKN2B (11736163_a_at) / Fold change /veh CDKN2B (11736163_a_at) / RFU PRF1 (11729649_at) / Fold change /veh PRF1 (11729649_at) / RFU, ZNF638 /// ZNF638-IT1 / Fold change vs veh, ZNF638 /// ZNF638-IT1 / RFU, PANK3 / Fold change vs veh, PANK3 / RFU, SH3YL1 / Fold change vs veh, SH3YL1 / RFU, ZEB2 / Fold change vs veh, ZEB2 / RFU, NRIP1 / Fold change vs veh, NRIP1 / RFU, PTTG1IP / Fold change vs veh, PTTG1IP / RFU, CAPN2 / Fold change vs veh, CAPN2 / RFU, MED14 / Fold change vs veh, MED14 / RFU, SNORA58 / Fold change vs veh, SNORA58 / RFU, C1orf63 / Fold change vs veh, C1orf63 / RFU, LRRFIP1 / Fold change vs veh, LRRFIP1 / RFU, NDUFAF7 / Fold change vs veh, NDUFAF7 / RFU, SLC12A2 / Fold change vs veh, SLC12A2 / RFU, IBTK / Fold change vs veh, IBTK / RFU, ESF1 / Fold change vs veh, ESF1 / Fold change vs veh, TMEM50B / RFU, TAOK1 / Fold change vs veh, TAOK1 / RFU, ACBD3 / Fold change vs veh, ACBD3 / RFU, TMA16 / Fold change vs veh, TMA16 / RFU, RWDD3 / Fold change vs veh, RWDD3 / RFU, BCAT1 / Fold change vs veh, BCAT1 / RFU, EDEM3 / Fold change vs veh, EDEM3 / RFU, TMEM33 / Fold change vs veh, TMEM33 / RFU, WDR75 / Fold change vs veh, WDR75 / RFU, AHCTF1 / Fold change vs veh, AHCTF1 / RFU, TFRC / Fold change vs veh, TFRC / RFU, ZDHHC17 / Fold change vs veh, ZDHHC17 / RFU, NOM1 / Fold change vs veh, NOM1 / RFU, ARL8B / Fold change vs veh, ARL8B / RFU, ZBTB11 / Fold change vs veh, ZBTB11 / RFU, TAMM41 / Fold change vs veh, TAMM41 / RFU, KIAA1704 /// LOC100996395 / Fold change vs veh, KIAA1704 /// LOC100996395 / RFU, ING1 / Fold change vs veh, ING1 / RFU, TRMT61B / Fold change vs veh, TRMT61B / RFU, FUBP3 / Fold change vs veh, FUBP3 / RFU, TP53 / Fold change vs veh, TP53 / RFU, TNKS2 / Fold change vs veh, TNKS2 / RFU, ZFP14 / Fold change vs veh, ZFP14 / RFU, ACTR2 / Fold change vs veh, ACTR2 / RFU, PPP3R1 / Fold change vs veh, PPP3R1 / RFU, PIK3R1 / Fold change vs veh, PIK3R1 / RFU, HNRNPA1 / Fold change vs veh, HNRNPA1 / RFU, RNF170 / Fold change vs veh, RNF170 / RFU, ZNF28 / Fold change vs veh, ZNF28 / RFU, RNGTT / Fold change vs veh, RNGTT / RFU, OGT / Fold change vs veh, OGT / RFU, BRD1 / Fold change vs veh, BRD1 / RFU, MARS / Fold change vs veh, MARS / RFU, ZNF655 / Fold change vs veh, ZNF655 / RFU, FAHD1 / Fold change vs veh, FAHD1 / RFU, BDP1 / Fold change vs veh, BDP1 / RFU, LRRCC1 / Fold change vs veh, LRRCC1 / RFU, ARID1A / Fold change vs veh, ARID1A / RFU, ZNF146 / Fold change vs veh, ZNF146 / RFU, ZNF330 / Fold change vs veh, ZNF330 / RFU, GPN3 / Fold change vs veh, GPN3 / RFU, C9orf123 / Fold change vs veh, C9orf123 / RFU, N4BP2L2 / Fold change vs veh, N4BP2L2 / RFU, ARFIP1 / Fold change vs veh, ARFIP1 / RFU, FAM179B / Fold change vs veh, FAM179B / RFU, BCL10 / Fold change vs veh, BCL10 / RFU, UHRF1BP1L / Fold change vs veh, UHRF1BP1L / RFU, BET1 / Fold change vs veh, BET1 / RFU, CNOT2 / Fold change vs veh, CNOT2 / RFU, ZNF268 / Fold change vs veh, ZNF268 / Fold change vs veh, ZNF507 / RFU, DGCR2 / Fold change vs veh, DGCR2 / RFU, WDSUB1 / Fold change vs veh, WDSUB1 / Fold change vs veh, HSP90B1 /// MIR3652 / RFU, ADSS / Fold change vs veh, ADSS / RFU, GK / Fold change vs veh, GK / RFU, ZNF148 / Fold change vs veh, ZNF148 / RFU, TAF9 / Fold change vs veh, TAF9 / RFU, SLC1A5 / Fold change vs veh, SLC1A5 / RFU, SLMO2 / Fold change vs veh, SLMO2 / RFU, ABCC4 / Fold change vs veh, ABCC4 / RFU, LOC101060439 /// RAP1B / Fold change vs veh, LOC101060439 /// RAP1B / RFU, RFX7 / Fold change vs veh, RFX7 / RFU, GTPBP10 / Fold change vs veh, GTPBP10 / RFU, CNEP1R1 / Fold change vs veh, CNEP1R1 / RFU, BIVM-ERCC5 /// ERCC5 / Fold change vs veh, BIVM-ERCC5 /// ERCC5 / RFU, ILF3 / Fold change vs veh, ILF3 / RFU 11762660_at / Fold change /veh 11762660_at / RFU VCAN (11757783_s_at) / Fold change /veh VCAN (11757783_s_at) / RFU DDX43 (11728927_at) / Fold change /veh DDX43 (11728927_at) / RFU KRT8 (11758188_x_at) / Fold change /veh KRT8 (11758188_x_at) / RFU NKD1 (11759106_at) / Fold change /veh NKD1 (11759106_at) / RFU SRD5A1 (11742802_a_at) / Fold change /veh SRD5A1 (11742802_a_at) / RFU TPSAB1 /// TPSB2 (11721975_s_at) / Fold change /veh TPSAB1 /// TPSB2 (11721975_s_at) / RFU GSTM3 (11746129_a_at) / Fold change /veh GSTM3 (11746129_a_at) / RFU IL23R (11737362_x_at) / Fold change /veh IL23R (11737362_x_at) / RFU TMEM51 (11727254_a_at) / Fold change /veh TMEM51 (11727254_a_at) / RFU PIWIL2 (11732686_x_at) / Fold change /veh PIWIL2 (11732686_x_at) / RFU ORM1 (11744905_x_at) / Fold change /veh ORM1 (11744905_x_at) / RFU CCDC152 (11743942_at) / Fold change /veh CCDC152 (11743942_at) / RFU ECM1 (11717891_a_at) / Fold change /veh ECM1 (11717891_a_at) / RFU IL23R (11748794_a_at) / Fold change /veh IL23R (11748794_a_at) / RFU TNFAIP8L3 (11732012_x_at) / Fold change /veh TNFAIP8L3 (11732012_x_at) / RFU MBOAT4 (11741988_at) / Fold change /veh MBOAT4 (11741988_at) / RFU 11764193_at / Fold change /veh 11764193_at / RFU TMEM53 (11763286_at) / Fold change /veh TMEM53 (11763286_at) / RFU MAGEB2 (11727129_at) / Fold change /veh MAGEB2 (11727129_at) / RFU TMEM200A (11744735_a_at) / Fold change /veh TMEM200A (11744735_a_at) / RFU CCDC152 (11751479_a_at) / Fold change /veh CCDC152 (11751479_a_at) / RFU FAM211A (11726209_a_at) / Fold change /veh FAM211A (11726209_a_at) / RFU RGS16 (11746705_a_at) / Fold change /veh RGS16 (11746705_a_at) / RFU VCAN (11755009_s_at) / Fold change /veh VCAN (11755009_s_at) / RFU RHOB (11743442_s_at) / Fold change /veh RHOB (11743442_s_at) / RFU RGS16 (11720943_a_at) / Fold change /veh RGS16 (11720943_a_at) / RFU RGS16 (11720944_at) / Fold change /veh RGS16 (11720944_at) / RFU, VPS4B / Fold change vs veh, VPS4B / RFU, CREB1 / Fold change vs veh, CREB1 / RFU, DNAJC13 / Fold change vs veh, DNAJC13 / RFU, GNAQ / Fold change vs veh, GNAQ / RFU, CDK5R1 / Fold change vs veh, CDK5R1 / RFU, ZRANB3 / Fold change vs veh, ZRANB3 / RFU, CUL4A / Fold change vs veh, CUL4A / RFU, CCNY / Fold change vs veh, CCNY / RFU, UFL1 / Fold change vs veh, UFL1 / RFU, COG3 / Fold change vs veh, COG3 / RFU, DIAPH2 / Fold change vs veh, DIAPH2 / RFU, SKA2 / Fold change vs veh, SKA2 / RFU, AFF3 / Fold change vs veh, AFF3 / RFU, LMF1 / Fold change vs veh, LMF1 / RFU, IPO11 / Fold change vs veh, IPO11 / RFU, DFFB / Fold change vs veh, DFFB / RFU, FOXP1 / Fold change vs veh, FOXP1 / RFU, CARD8 / Fold change vs veh, CARD8 / RFU, STRN3 / Fold change vs veh, STRN3 / RFU, ADK / Fold change vs veh, ADK / RFU, RASSF2 / Fold change vs veh, RASSF2 / RFU, WIPF1 / Fold change vs veh, WIPF1 / RFU, LARP1B / Fold change vs veh, LARP1B / RFU, RASA1 / Fold change vs veh, RASA1 / RFU, RB1 / Fold change vs veh, RB1 / RFU, PPFIA1 / Fold change vs veh, PPFIA1 / RFU, MAT2A / Fold change vs veh, MAT2A / RFU, CCT5 / Fold change vs veh, CCT5 / RFU, WDR92 / Fold change vs veh, WDR92 / RFU, CUX1 / Fold change vs veh, CUX1 / RFU, TTC7A / Fold change vs veh, TTC7A / RFU, TMEM135 / Fold change vs veh, TMEM135 / RFU, DEPTOR / Fold change vs veh, DEPTOR / RFU, CPM / Fold change vs veh, CPM / RFU, DNAJB6 / Fold change vs veh, DNAJB6 / RFU, CACNA2D3 / Fold change vs veh, CACNA2D3 / RFU, DTX4 / Fold change vs veh, DTX4 / RFU, TFCP2 / Fold change vs veh, TFCP2 / RFU, GMCL1 /// GMCL1P1 / Fold change vs veh, GMCL1 /// GMCL1P1 / RFU, AEBP2 / Fold change vs veh, AEBP2 / RFU, SNHG1 /// SNORD22 /// SNORD25 /// SNORD26 /// SNORD27 /// SNORD28 /// SNORD29 /// SNORD31 / Fold change vs veh, SNHG1 /// SNORD22 /// SNORD25 /// SNORD26 /// SNORD27 /// SNORD28 /// SNORD29 /// SNORD31 / Fold change (Aza/veh), C12orf56 (ProbeSet 11735607_a_at) / Fold change (ACY-1035/veh), C12orf56 (ProbeSet 11735607_a_at) / Fold change (Aza/veh), FGFR1OP (ProbeSet 11751329_s_at) / Fold change (ACY-1035/veh), FGFR1OP (ProbeSet 11751329_s_at) / Fold change (Aza/veh), VPS36 (ProbeSet 11739960_a_at) / Fold change (ACY-1035/veh), VPS36 (ProbeSet 11739960_a_at) / RFU SYPL1 (11715823_x_at) / Fold change /veh SYPL1 (11715823_x_at) / RFU IGFBP7 (11715501_s_at) / Fold change /veh IGFBP7 (11715501_s_at) / RFU REEP3 (11722064_at) / Fold change /veh REEP3 (11722064_at) / RFU IGLL1 (11728026_x_at) / Fold change /veh IGLL1 (11728026_x_at): dose or concentration left out as unconfirmed
# Settings: ProbeSet 11755159_a_at; LIST D
smiles,measurement,value
Nc1ncn([C@@H]2O[C@H](CO)[C@@H](O)[C@H]2O)c(=O)n1 [azacitidine],"Fold change vs veh, COG3",0.82
